Experimental data taken from US11058642B2, “Tablets with improved friability” (TOWER LABORATORIES LTD, priority 2013, dated 2021).

Legend:
Type in all cases: physicochemical
[1] = Tablet hardness (Schuleuniger-4M tablet hardness tester); conditions: denture cleanser tablet (Table 1 formula, citric acid), additive 0.6%
Experimental: Tablets were compressed using ⅞″ round tooling on a Stokes F press. Compression force was adjusted to give the hardest possible tablet (limit set by capability of the press or by the appearance of tablet capping).
Hardness was measured using a Schuleuniger-4M tablet hardness tester.
Three (3) gram tablets were compressed using ⅞″ round tooling on a Stokes F press. Compression force was adjusted to give the hardest possible tablet (limit set by capability of the press or by appearance of tablet capping).
3.3 gram tablets were compressed using ⅞″ round tooling on a Stokes F press. As above, compression force was adjusted to give the hardest possible tablet (limit set by capability of the press or by appearance of tablet capping).
2.5 gram tablets were compressed using ⅞″ round tooling on a Stokes F press. As above, compression force was adjusted to give the hardest possible tablet (limit set by capability of the press or by appearance of tablet capping).

[2] = Tablet friability, modified USP-NF <1216> (Erweka TA, 10 tablets, 25 rpm; % unbroken tablets)
Experimental: Friability was measured in a manner similar to that described in the USP-NF, Chapter <1216>. The USP-NF method was modified in that the number of tablet used and the method of calculation were changed as indicated here. Ten (10) tablets were placed in an Erweka TA friability apparatus. The tablets were tumbled at 25 rpm for the indicated number of minutes. The percentage of unbroken tablets is reported.

[3] = Solubility in water of the tested materials; conditions: neat material
Source text: In an attempt to understand what chemical properties of the tested materials are critical to improving friability, we looked at some of the physical properties of the tested materials.

SMILES: OCC(O)CO [Glycerin]
- Hardness [1]: 9.5 kp
- Friability (% whole tablets) 2 min ([2]; denture cleanser tablet (Table 1 formula, citric acid), additive 0.6%, tumbled 2 min): 100 % whole tablets
- Friability (% whole tablets) 4 min ([2]; denture cleanser tablet (Table 1 formula, citric acid), additive 0.6%, tumbled 4 min): 100 % whole tablets
- Friability (% whole tablets) 6 min ([2]; denture cleanser tablet (Table 1 formula, citric acid), additive 0.6%, tumbled 6 min): 100 % whole tablets
- Friability (% whole tablets) 8 min ([2]; denture cleanser tablet (Table 1 formula, citric acid), additive 0.6%, tumbled 8 min): 100 % whole tablets
- Friability (% whole tablets) 10 min ([2]; denture cleanser tablet (Table 1 formula, citric acid), additive 0.6%, tumbled 10 min): 100 % whole tablets
- Friability improvement ([2]; summary for denture cleanser tablet (Table 1 formula), material at 0.6%): Yes
- Solubility in Water (w/w %) [3]: 100% w/w %
